Reference: the NIST ThermoML archive (doi:10.1016/j.jct.2015.08.033)

Test: mn = molality of the nth substance listed, in mol/kg
Details: 100 kPa, Liquid; for speed of sound: Frequency=3 MHz, Sing-around technique in a fixed-path interferometer; for mass density: Vibrating tube method

O=S(=O)([O-])C(F)(F)F.O=S(=O)([O-])C(F)(F)F.[Sr+2] [strontium trifluoromethanesulfonate] + CC(=O)N(C)C
Details	mass density, 298.15 K [kg/m3]	mass density, 303.15 K [kg/m3]	mass density, 308.15 K [kg/m3]	mass density, 313.15 K [kg/m3]	mass density, 318.15 K [kg/m3]	speed of sound, 298.15 K [m/s]	speed of sound, 303.15 K [m/s]	speed of sound, 308.15 K [m/s]	speed of sound, 313.15 K [m/s]	speed of sound, 318.15 K [m/s]
m1 = 0.009611	938.686	934.078	929.46	924.833	920.199	1456.3	1436.5	1416.7	1397	1377.5
m1 = 0.01616	940.308	935.702	931.087	926.462	921.831	1456.5	1436.8	1417	1397.3	1377.8
m1 = 0.02452	942.361	937.757	933.142	928.518	923.888	1456.8	1437.1	1417.4	1397.8	1378.3
m1 = 0.0346	944.817	940.215	935.603	930.982	926.353	1456.9	1437.2	1417.5	1398	1378.6
m1 = 0.04877	948.237	943.637	939.026	934.407	929.78	1457.1	1437.5	1418	1398.6	1379.2
m1 = 0.06177	951.363	946.763	942.151	937.533	932.906	1457.3	1437.8	1418.3	1398.9	1379.7
m1 = 0.07813	955.261	950.663	946.052	941.432	936.806	1457.5	1438.1	1418.7	1399.3	1380.1
m1 = 0.09814	960.007	955.407	950.795	946.177	941.551	1457.7	1438.4	1419.1	1399.8	1380.7
m1 = 0.1176	964.581	959.98	955.367	950.748	946.121	1458	1438.8	1419.5	1400.3	1381.3
m1 = 0.1476	971.566	966.955	962.34	957.717	953.091	1458.3	1439	1419.8	1400.8	1381.8

O=S(=O)([O-])C(F)(F)F.O=S(=O)([O-])C(F)(F)F.[Sr+2] [strontium trifluoromethanesulfonate] + CN(C)C=O
Details	mass density, 298.15 K [kg/m3]	mass density, 303.15 K [kg/m3]	mass density, 308.15 K [kg/m3]	mass density, 313.15 K [kg/m3]	mass density, 318.15 K [kg/m3]	speed of sound, 298.15 K [m/s]	speed of sound, 303.15 K [m/s]	speed of sound, 308.15 K [m/s]	speed of sound, 313.15 K [m/s]	speed of sound, 318.15 K [m/s]
m1 = 0.01062	946.522	941.756	936.972	932.186	927.378	1457.2	1438	1418.7	1399.5	1380.3
m1 = 0.01763	948.231	943.466	938.685	933.888	929.08	1457.2	1438	1418.7	1399.6	1380.4
m1 = 0.02656	950.395	945.626	940.844	936.049	931.241	1457.1	1438	1418.7	1399.6	1380.5
m1 = 0.03847	953.244	948.482	943.704	938.91	934.105	1457	1437.9	1418.7	1399.6	1380.6
m1 = 0.04908	955.781	951.013	946.233	941.439	936.634	1456.8	1437.8	1418.6	1399.6	1380.6
m1 = 0.06765	960.189	955.42	950.641	945.845	941.04	1456.5	1437.6	1418.5	1399.5	1380.7
m1 = 0.08503	964.269	959.5	954.718	949.923	945.118	1456.2	1437.3	1418.3	1399.5	1380.6
m1 = 0.1067	969.35	964.567	959.781	954.985	950.18	1456.1	1437.1	1418.2	1399.3	1380.6
m1 = 0.1286	974.403	969.629	964.845	960.047	955.242	1455.4	1436.7	1417.9	1399.1	1380.5
m1 = 0.1612	981.851	977.074	972.285	967.485	962.676	1454.7	1436.1	1417.4	1398.8	1380.2
